Source: patent US10399966B2, “Compounds for treatment of trypanosomes and neurological pathogens and uses thereof” (The University of North Carolina at Chapel Hill, priority 2016, dated 2019)
Like-named read-outs stand apart in the source and are kept apart here.

Key:
T. b. brucei = experiment: In vitro antitrypanosomal activity against T. brucei (growth inhibition); assay type: cell-based, Trypanosoma brucei; conditions: Trypanosoma brucei; for EC90: read-out: T. brucei EC90
Procedure: Primary hits from the screen were further characterized using a dose-response assay format to determine the EC50. In parallel, the cytotoxicities of these compounds were determined against a proliferating human hepatoma cell line (Huh7). […] SI—CC50/EC50). The final set of confirmed T. brucei hits consisted of 1035 inhibitors. […] In vitro antitrypanosomal activities against T. b. rhodesiense (STIB9000) and cytotoxicities against L6 rat myoblast cells were measured following established protocols (Orhan et al., Mar. Drugs 8:47 (2010). […] All wells including negative controls contained a final of 0.4% DMSO. After incubation of the plates at 37° C. for 48 h, the parasite density was determined using the CellTiter-Glo reagent (Promega), a firefly luciferase assay system that measures the amount of cellular ATP present in plate wells.

human hepatocytes HepG2 = experiment: Cytotoxicity against HepG2 cells; conditions: for EC50: Homo sapiens, HepG2, read-out: HepG2 EC50; for EC90: read-out: HepG2 EC90, concentration required to inhibit growth by 90%, human hepatocytes
Trypanosoma cruzi = experiment: Efficacy against T. cruzi in vitro; assay type: cell-based; conditions: Trypanosoma cruzi, Table 10; for EC50: read-out: T.cruzi EC50; for EC90: read-out: T.cruzi EC90
[1] = tested on: human lymphocytes CRL-8155; experiment: Cytotoxicity against CRL-8155 cells; conditions: human lymphoblasts; for EC50: read-out: CRL-8155 EC50, concentration required to inhibit growth by 50%; for EC90: read-out: CRL-8155 EC90, concentration required to inhibit growth by 90%
Procedure: The selectivity of each compound for the parasite over each of the two cell lines was calculated.

[2] = Distribution between mouse plasma and brain (brain penetration, ip); assay type: in vivo; conditions: for Brain/plasma ratio / [compound]Brain / [compound]Plasma: Table 14, mice, single ip dose 5 mg/kg, one hour post-dose; for [compound]Brain / [compound]Plasma: ± SEM of 3 mice (compound 3: 6 mice); for Kp at 1 h / concentration at 1 h: mouse, intraperitoneal, 5 mg/kg; for Kp at 1 h: brain and plasma, read-out: Average brain/plasma ratio
Procedure: For distribution of compounds between mouse plasma and brain, mice (in groups of 3) were injected with test compounds (5 mg/kg ip) and sacrificed at the indicated times for collection of plasma and brain. Compound was dissolved in 0.4 mL of dosing solution (7% Tween 80, 3% ethanol, 5% DMSO, 0.9% saline) for ip injections. The brains were weighed and immediately frozen, then later homogenized in acetonitrile using a Dounce homogenizer. Prior to animal studies, recovery of test compound was carried out by adding a known amount to a mouse brain in the test extraction solvent and performing the homogenization. Compound recovery was determined by liquid chromatography/tandem mass spectrometry analysis relative to a standard compound amount. Blood was taken from the same mice in heparinized capillary tubes (Fisherbrand) for determination of compound concentration in plasma. The concentration of compound in the brain was obtained by dividing the moles of compound in the brain by the brain volume (obtained from the brain weight assuming 1 g is 1 mL) and correcting for the brain vasculature volume of 2.5% by weight.
Brain penetration studies (Table 14) were initially performed upon compounds 1, 2, and 3, but were expanded to include other compounds in order to explore the SAR of brain penetration. Groups of three mice were given single 5 mg/kg ip doses of the test compounds and were sacrificed 1 h post-dose.

[3] = Table 11, read-out: T. b. brucei EC50
[4] = Table 9, read-out: T. brucei EC50
[5] = Table 8, read-out: T. brucei EC50
[6] = brain, Table 8, groups of 3 mice (compound 3: ± SEM of 6 mice), read-out: Average [compound] brain
[7] = plasma, Table 8, groups of 3 mice (compound 3: ± SEM of 6 mice), read-out: Average [compound] plasma

melting point [°C]	EC50 (Trypanosoma cruzi) [µM]	EC90 (Trypanosoma cruzi) [µM]	Brain/plasma ratio [2]	[compound]Brain [2] [µM]	[compound]Plasma [2] [µM]	Kp at 1 h ([2]; Table 8, groups of 3 mice)	concentration at 1 h [2, 6] [nM]	concentration at 1 h [2, 7] [nM]	SMILES	EC50 (T. b. brucei; [3]) [µM]	EC50 (T. b. brucei; [4]) [µM]	EC90 (T. b. brucei; Table 9) [µM]	EC50 (human hepatocytes HepG2) [µM]	EC90 (human hepatocytes HepG2) [µM]	EC50 [1] [µM]	EC90 [1] [µM]	EC50 (T. b. brucei; [5]) [µM]	other results
194 to 195	0.578	0.665	1.76 ± 0.032	2.31 ± 0.746	1.3 ± 0.406				O=C(Nc1ccc2sc(-c3cccc(F)c3F)nc2c1)N1CCCC1 [Compound 5, 2-(2,3-Difluorophenyl)-5-(N-pyrrolidylamido)benzothiazole]	0.183	0.183	0.394	> 50	> 50	> 50	> 50		EC50 (T. b. brucei; Table 7, read-out: T. brucei EC50): 0.183 µM; Kp at 1 h ([2]; Table 7, groups of 3 mice): 1.76 ± 0.055; concentration at 1 h ([2]; brain, Table 7, groups of 3 mice, read-out: Average [compound] brain): 2310 ± 1290 nM; concentration at 1 h ([2]; plasma, Table 7, groups of 3 mice, read-out: Average [compound] plasma): 1300 ± 703 nM
227 to 228			7.92 ± 0.693	21.7 ± 1.96	2.81 ± 0.452	7.92 ± 1.2	21700 ± 3400	2810 ± 784	O=C(Nc1ccc2sc(-c3ccc(F)c(F)c3)nc2c1)N1CCC(F)(F)C1 [Compound 9, 2-(3,4-Difluorophenyl)-5-(3,3-difluoro-N-pyrrolidylamido)benzothiazole]	0.934	0.934	1.66	> 50	> 50	> 50	> 50	0.934	
171 to 175			0.477 ± 0.052	1.97 ± 0.612	4.15 ± 1.368	0.477 ± 0.09	1970 ± 1060	4150 ± 2370	O=C(Nc1ccc2sc(-c3ccc(F)c(F)c3)nc2c1)N1CCC(C(F)(F)F)C1 (stereo not shown) [Compound 10, 2-(3,4-Difluorophenyl)-5-[(3-trifluoromethyl)-N-pyrrolidylamido]benzothiazole]		1.69	4.88					1.7	
147 to 149			3.80 ± 0.331	3.00 ± 0.796	0.780 ± 0.202	3.8 ± 0.57	3000 ± 1380	780 ± 350	CN(C)C1CCN(C(=O)Nc2ccc3sc(-c4ccc(F)c(F)c4)nc3c2)C1 (stereo not shown) [Compound 11, 2-(3,4-Difluorophenyl)-5-(3-dimethylamino-N-pyrrolidylamido)benzothiazole]		1.7	1.95					1.71	
232 to 233	0.429	0.912	0.510 ± 0.023	1.29 ± 0.156	2.52 ± 0.185	0.51 ± 0.04	1290 ± 270	2520 ± 320	O=C(Nc1ccc2sc(-c3ccc(F)c(F)c3)nc2c1)N1CCCCC1 [Compound 12, 2-(3,4-Difluorophenyl)-5-(N-piperidylamido)benzothiazole]	0.223	0.223	0.282	> 50	> 50	> 50	> 50	0.223	
231.5 to 232	1.8	1.99	1.01 ± 0.081	2.52 ± 0.248	2.51 ± 0.203	1.01 ± 0.14	2530 ± 430	2510 ± 352	O=C(Nc1ccc2sc(-c3ccc(F)c(F)c3)nc2c1)N1CCC(F)CC1 [Compound 13, 2-(3,4-Difluorophenyl)-5-(4-fluoro-N-piperidylamido)benzothiazole]	0.341	0.341	0.596	> 50	> 50	> 50	> 50	0.341	
256									O=C(Nc1ccc2sc(-c3ccccc3)nc2c1)c1cccs1 [Compound 18, 2-Phenyl-5-(2-thienylamido)benzothiazole]	0.882	0.882	2.13	> 50	> 50	> 50	> 50		
211 to 213	0.666	0.802							O=C(Nc1ccc2sc(-c3ccc(F)cc3)nc2c1)N1CCCC1 [Compound 26, 2-(4-Fluorophenyl)-5-(N-pyrrolidylamido)benzothiazole]	0.375	0.375	0.895	> 50	> 50	> 50	> 50		
227 to 229	1.67	1.95							O=C(Nc1ccc2sc(-c3ccc(F)cc3)nc2c1)N1CCCCC1 [Compound 27, 2-(4-Fluorophenyl)-5-(N-piperidylamido)benzothiazole]	0.427	0.427	0.737	> 50	> 50	> 50	> 50		
207 to 208	1.23	1.99							O=C(Nc1ccc2sc(-c3ccccc3F)nc2c1)N1CCCC1 [Compound 32, 2-(2-Fluorophenyl)-5-(N-pyrrolidylamido)benzothiazole]	0.983	0.983	1.24	> 50	> 50	> 50	> 50		
213 to 215	0.843	1.12							O=C(Nc1ccc2sc(-c3ccccc3F)nc2c1)N1CCCCC1 [Compound 33, 2-(2-Fluorophenyl)-5-(N-piperidylamido)benzothiazole]	0.935	0.935	1.14	> 50	> 50	> 50	> 50		
223 to 224	1.73	2.02							O=C(Nc1ccc2sc(-c3ccc(F)cc3F)nc2c1)N1CCCC1 [Compound 34, 2-(2,4-Difluorophenyl)-5-(N-pyrrolidylamido)benzothiazole]		0.929	1.48						
